Nine compounds from patent US4762839A, “Quinazolinone copmpounds useful for the prophyloxis and treatment of diabetic complications” (priority 1985, dated 1988) can be followed below.

Data set [1] deals with T1, aldose reductase (Oryctolagus cuniculus, UniProt P15122).
T1 construct: Aldose reductase was obtained from lens of male rabbit; from tissue; host or cells: lens of male rabbit (weighing 2.5-3.5 kg)
The data set can be described thus: Aldose reductase inhibitory activity. The data set is classed as biochemical. Particulars: aldose reductase from lens of male rabbit. The method, then:
Aldose reductase was obtained from lens of male rabbit (weighing 2.5-3.5 kg) in the same manner as described in J. Biol. Chem., Vol. 240, 877-882 (1965). The inhibitory activity of the test compounds against the aldose reductase was measured in the same manner as described in Biochim. Biophys. Acta., Vol. 128, 474-482 (1966).

The subject of data set [2] is ddY male mice. The data set can be described thus: Acute toxicity and observation of symptoms. The data set is classed as in vivo. Particulars: for abnormal symptoms (dysbasia, areflexia, astasia, blepharoptosis, dyspnea, skin flush, lacrimation, etc.): mouse, in vivo, po; for mortality (acute toxicity): oral, suspension in 0.5% carboxymethyl cellulose, observed for 14 days, dose not given.

Structures can show the parent of a compound that is named as a salt.

One may read the IC50 as the point on the concentration scale where inhibition reaches its midpoint. Low values mean higher potency, high ones lower potency. In turn, `CN1C(=O)Nc2ccc(Cl)cc2C12NC(=O)NC2=O` (stereo not shown) [Test Compound 3, 6-Chloro-3-methyl-spiro[1,2,3,4-tetrahydroquinazoline-4,4'-imidazolidine]-2,2',5'-trione-1'-sodium salt] yielded an IC50 in data set [1] of 29 nM. On the same count and under the same terms, the figure for `CN1C(=O)NC2(C1=O)c1ccccc1NC(=O)N2C` (stereo not shown) [Test Compound 11, 3,1'-Dimethyl-spiro[1,2,3,4-tetrahydroquinazoline-4,4'-imidazolidine]-2,2',5'-trione, reference compound] is 10000 nM.

For the compound `CN1C(=O)Nc2ccc(Cl)cc2C12NC(=O)NC2=O` (stereo not shown) [Test Compound 1, 6-Chloro-3-methyl-spiro[1,2,3,4-tetrahydroquinazoline-4,4'-imidazolidine]-2,2',5'-trione], in data set [2], the “abnormal symptoms (dysbasia, areflexia, astasia, blepharoptosis, dyspnea, skin flush, lacrimation, etc.)” value is recorded as “there was not observed any abnormal symptom” and the “mortality (acute toxicity)” value is listed as “no mouse died”. In data set [1], this compound registered an IC50 of 56 nM.

In turn, `CN1C(=O)N(C)C2(C1=O)c1ccccc1NC(=O)N2C` (stereo not shown) [Test Compound 12, 3,1',3'-Trimethyl-spiro[1,2,3,4-tetrahydroquinazoline-4,4'-imidazolidine]-2,2',5'-trione, reference compound] yielded an IC50 in data set [1] greater than 50000 nM.

Regarding `CN1C(=O)Nc2ccc(Br)cc2C12NC(=O)NC2=O` (stereo not shown) [Test Compound 6, 6-Bromo-3-methyl-spiro[1,2,3,4-tetrahydroquinazoline-4,4'-imidazolidine]-2,2',5'-trione], in data set [1], the IC50 came to 52 nM. The compound `CN1C(=O)Nc2cc(Cl)c(Cl)cc2C12NC(=O)NC2=O` (stereo not shown) [Test Compound 7, 6,7-Dichloro-3-methyl-spiro[1,2,3,4-tetrahydroquinazoline-4,4'-imidazolidine]-2,2',5'-trione] showed an IC50 in data set [1] of 74 nM.

For `CC(C)CN1C(=O)N(C)C2(NC(=O)NC2=O)c2cc(Cl)ccc21` (stereo not shown) [Test Compound 10, 1-Isobutyl-6-chloro-3-methyl-spiro[1,2,3,4-tetrahydroquinazoline-4,4'-imidazolidine]-2,2',5'-trione], the IC50 in data set [1] is 270 nM. In the case of `CN1C(=O)Nc2ccc(Cl)cc2C12NC(=O)NC2=O` (stereo not drawn) [Test Compound 2, d-6-Chloro-3-methyl-spiro[1,2,3,4-tetrahydroquinazoline-4,4'-imidazolidine]-2,2',5'-trione], in data set [2], the “abnormal symptoms (dysbasia, areflexia, astasia, blepharoptosis, dyspnea, skin flush, lacrimation, etc.)” value is given as “there was not observed any abnormal symptom” and the “mortality (acute toxicity)” value is “no mouse died”. This compound returned an IC50 in data set [1] of 22 nM. In data set [1], `Cc1cc2c(cc1Cl)C1(NC(=O)NC1=O)N(C)C(=O)N2` (stereo not shown) [Test Compound 5, 6-Chloro-3,7-dimethyl-spiro[1,2,3,4-tetrahydroquinazoline-4,4'-imidazolidine]-2,2',5'-trione] displayed an IC50 of 30 nM.
